Test results as given in PMC6770581, “New Thalidomide-Resembling Dicarboximides Target ABC50 Protein and Show Antileukemic and Immunomodulatory Activities” (Biomolecules, 2019).

Experiments:
Format in all cases: cell-based, human
[1] = system: caspases 8/9; assay: Caspase-Glo 8 and 9 luminescent activity assay in K562 cells; details: K562, 5× IC50, 6 h, control 1% DMSO = 1.0
Protocol: (§1) Louis, MO). The induction of cell apoptosis was analyzed by Apo-ONE® Homogeneous Caspase-3/7 Assay (Promega, Madison, WI, USA). […] The fluorescence in each well was measured in triplicate (excitation at 485 nm, emission measured at 520 nm) using a microplate reader FLUOStar Omega (BMG-Labtech, Offenburg, Germany). For normalization of the data, the caspase activity in the control cells (exposed to 1% DMSO) was taken as 1.0. […] Luminescence was measured (in triplicate) using a microplate reader FLUOStar Omega. For normalization of the data, the caspase activity in the control cells (exposed to 1% DMSO) was taken as 1.0.

[2] = system: caspases 8/9; assay: Caspase-Glo 8 and 9 luminescent activity assay in MOLT-4 cells; details: MOLT-4, 5× IC50, 3 h, control 1% DMSO = 1.0
Protocol: as §1

[3] = system: BAX, PMAIP1, HTRA2, TNFRSF 10B, ESRRBL1 mRNA; assay: Real-time RT-qPCR of apoptosis-related mRNAs in K562 cells; details: K562, 18 h, 3 10 µM, 6 5 µM (5× IC50), relative to 1% DMSO, normalized to GAPDH
Protocol: The total RNA pool was isolated from the cells lysates using TriPure Isolation Reagent (Roche, Basel, Switzerland) according to the manufacturer's instruction. Purity and integrity of RNA was checked spectrophotometrically with a NanoDrop ND-1000 spectrophotometer (Thermo Fisher Scientific, Waltham, MA, USA) and Agilent 2100 Bioanalyzer instrument. […] Reverse transcription and polymerase chain reaction (RT-PCR) amplification reactions were performed in one step using a LightCycler® 1.0 Instrument (Roche) and LightCycler RNA Amplification Kit SYBR Green I (Roche). […] The qRT-PCR reactions were optimized for each studied gene and performed according to a general protocol: a reverse transcription reaction (RT) for 10 min. at 55 °C, and a denaturation step for 30 s at 95 °C. The three steps of PCR quantification reaction included: I-denaturation (0 s at 95 °C), II-annealing (10 s at 60 °C), III-product extension (8 s at 72 °C), 45 cycles in total. Subsequent melting experiments were performed by quick denaturation at 95 °C, annealing over 10 s at 65 °C and heating up to 95 °C at 0.1 °C/s. The BAX, PMAIP1, HTRA2, TNFRSF 10B, and ESRRBL1 mRNA levels were normalized against a reference GAPDH mRNA. […]

[4] = system: IKZF1 and IKZF3; assay: IKZF1 and IKZF3 level by immunoblotting in K562 cells; details: K562, 48 h, 3 (1 µM), 5 (1 µM), 6 (1 µM)
Protocol: (§2) K562 or MOLT4 cells were seeded on 6-well plate (2 × 10^6 cells/well) in a RPMI 1640 medium containing 10% FBS. MOLT4 cells were exposed to 1% DMSO (vehicle control), test compounds 6 (2 µM), 3 (5 µM), 5 (10 µM). Similarly, K562 cells were exposed to 1% DMSO, test compounds 6 (1 µM), 3 (1 µM), 5 (1 µM) for 48 h. Cells treated with 100 µM thalidomide or 10 µM lenalidomide served as positive controls. After incubation, cells were centrifuged (600 rpm, 6 min, 24 °C), washed once with PBS and lysed in 20 mM Tris (pH 7.2) containing 1% Triton X-100 supplemented with Complete® protease inhibitors cocktail (Roche). The levels of IKZF1 and IKZF3 were assessed by immunoblotting (IB).
(§3) Cells were lysed in TBS buffer containing 1% Triton X-100 and Complete® protease inhibitor cocktail (Roche) for 15 min on ice with occasional vortexing. Insoluble material was centrifuged (12,000 rpm, 15 min, 4 °C) and supernatants were collected. Total protein concentration was measured with DC Protein Assay (Bio-Rad, Hercules, CA, USA). Cell lysates containing 30 µg of total protein were mixed with Laemli buffer supplemented with SDS and β-mercaptoethanol, denatured (10 min, 95 °C) and subjected to sodium dodecyl sulfate polyacrylamide gel electrophoresis (SDS-PAGE) electrophoresis (4% stacking and 10% resolving gels). Resolved proteins were electrotransferred (semi-dry, 90 min, 1.5 mA/cm^2) to a 0.45 µm nitrocellulose membrane (Thermo Scientific, Waltham, MA, USA). Membranes were blocked for 2 hours in TBST buffer (20 mM Tris-HCl pH 7.5, 0.9% NaCl, 0.1% Tween 20) containing 5% BSA (BioShop, Burlington, ON, Canada) and probed with primary antibodies (overnight at 4 °C) diluted in TBST buffer with 0.5% BSA. Tubulin served as a loading control for IB experiments. Anti IKZF3 (rabbit monoclonal, dilution 1:500), anti IKZF1 (rabbit polyclonal, dilution 1:500) were from Abcam. Anti IRF4 (rabbit polyclonal, dilution 1:500) were from Cell Signaling Technology. […] Protein bands intensities were analysed using Image Quant (version 5.0, GE Healthcare Life Sciences, Pittsburgh, PA, USA).

[5] = system: IKZF1 and IKZF3; assay: IKZF1 and IKZF3 level by immunoblotting in MOLT-4 cells; details: MOLT-4, 48 h, 3 (5 µM), 5 (10 µM), 6 (2 µM)
Protocol: as §2, §3

Compound	increase of activity of caspases 8/9 compared to the control [1]	activation of caspases 8/9 compared to the control [2]	expression of mRNAs of receptor (TNFRSF 10B, ESRRBL1) and mitochondrial (BAX, PMAIP1, HTRA2) apoptotic pathways [3]	level of IKZF1 and IKZF3 (immunoblotting) [4]	level of IKZF1 and IKZF3 (immunoblotting) [5]
CCC12C(=O)C(CC)(C(c3ccccc3)=C1c1ccccc1)C1C(=O)N(CCN3CCCCC3)C(=O)C12 (stereo not drawn) [Compound 3]	more than 2 fold	more than 10 fold	significantly induced	modest reduction	modest reduction
CCC12C(=O)C(CC)(C(c3ccccc3)=C1c1ccccc1)C1C(=O)N(CC(O)CNC(C)C)C(=O)C12 (stereo not drawn) [Compound 5]				significant diminution	significant diminution
CN(C)CCN1C(=O)C2C(C1=O)C1(c3ccccc3)CC2(c2ccccc2)C(c2ccccc2)=C1c1ccccc1 (stereo not drawn) [Compound 6]	more than 2 fold	more than 10 fold	significantly induced	significant diminution	significant diminution
